Measurements taken from US20170190671A1, “BIS(ARYL)CATECHOL DERIVATIVES AS HERBICIDES” (E I DU PONT DE NEMOURS AND COMPANY, priority 2014, published 2017).

Tests used:
Assay type in all cases: in vivo
[1] = tested on: yellow nutsedge (Cyperus esculentus); experiment: Test C postemergence; settings: Cyperus, post-emergence, 336 h, Postemergence, scale 0 to 100, read-out: Plant response rating, Nutsedge, Yellow
Outline: (§1)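 Greenhouse test, preemergence on seeded soil or postemergence on 1- to 4-leaf plants. Response is a visual 0-100 rating versus controls, taken 13-15 days after treatment.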

[2] = tested on: large (Lg) crabgrass (Digitaria sanguinalis); experiment: Test C postemergence; settings: Digitaria sanguinalis, post-emergence, 336 h, Postemergence, scale 0 to 100, read-out: Plant response rating, Crabgrass, Large
Outline: as §1

[3] = tested on: barnyardgrass (Echinochloa crus-galli); experiment: Test C postemergence; settings: Echinochloa crus-galli, post-emergence, Postemergence, scale 0 to 100, read-out: Plant response rating, Barnyardgrass
Outline: as §1

[4] = tested on: winter wheat (Triticum aestivum); experiment: Test C postemergence; settings: Triticum aestivum, post-emergence, 336 h, Postemergence, scale 0 to 100, read-out: Plant response rating, Wheat
Outline: as §1

[5] = tested on: chickweed (common chickweed, Stellaria media); experiment: Test C postemergence; settings: Stellaria media, post-emergence, Postemergence, scale 0 to 100, read-out: Plant response rating, Chickweed
Outline: as §1

[6] = tested on: waterhemp (common waterhemp, Amaranthus rudis); experiment: Test C postemergence; settings: Amaranthus tuberculatus, post-emergence, Postemergence, scale 0 to 100, read-out: Plant response rating, Waterhemp
Outline: as §1

[7] = tested on: corn (Zea mays); experiment: Test C postemergence; settings: Zea mays, post-emergence, 336 h, Postemergence, scale 0 to 100
Outline: as §1

[8] = tested on: lambsquarters (Chenopodium album); experiment: Test C postemergence; settings: Chenopodium album, post-emergence, 336 h, Postemergence, scale 0 to 100, read-out: Plant response rating, Lambsquarters
Outline: as §1

[9] = tested on: galium (catchweed bedstraw, Galium aparine); experiment: Test C postemergence; settings: Galium, post-emergence, 336 h, Postemergence, scale 0 to 100, read-out: Plant response rating, Galium
Outline: as §1

[10] = tested on: ragweed (common ragweed, Ambrosia elatior); experiment: Test C postemergence; settings: Ambrosia artemisiifolia, post-emergence, 336 h, Postemergence, scale 0 to 100, read-out: Plant response rating, Ragweed
Outline: as §1

[11] = tested on: oilseed rape (Brassica napus); experiment: Test C postemergence; settings: Brassica napus, post-emergence, Postemergence, scale 0 to 100, read-out: Plant response rating, Oilseed Rape
Outline: as §1

[12] = tested on: soybean (Glycine max); experiment: Test C postemergence; settings: Glycine max, post-emergence, Postemergence, scale 0 to 100, read-out: Plant response rating, Soybean
Outline: as §1

[13] = tested on: pigweed (Amaranthus retroflexus); experiment: Test C postemergence; settings: Amaranthus retroflexus, post-emergence, 336 h, Postemergence, scale 0 to 100, read-out: Plant response rating, Pigweed
Outline: as §1

[14] = tested on: kochia (Kochia scoparia); experiment: Test C postemergence; settings: Bassia scoparia, post-emergence, Postemergence, scale 0 to 100, read-out: Plant response rating, Kochia
Outline: as §1

[15] = tested on: blackgrass (Alopecurus myosuroides); experiment: Test C postemergence; settings: Alopecurus myosuroides, post-emergence, 336 h, Postemergence, scale 0 to 100, read-out: Plant response rating, Blackgrass
Outline: as §1

[16] = tested on: velvetleaf (Abutilon theophrasti); experiment: Test C postemergence; settings: Abutilon theophrasti, post-emergence, Postemergence, scale 0 to 100, read-out: Plant response rating, Velvetleaf
Outline: as §1

[17] = tested on: morningglory (Ipomoea coccinea); experiment: Test C postemergence; settings: Ipomoea, post-emergence, 336 h, Postemergence, scale 0 to 100, read-out: Plant response rating, Morningglory
Outline: as §1

[18] = tested on: giant foxtail (Setaria faberii); experiment: Test C postemergence; settings: Setaria faberi, post-emergence, 336 h, Postemergence, scale 0 to 100, read-out: Plant response rating, Foxtail, Giant
Outline: as §1

[19] = tested on: johnsongrass (Sorghum halepense); experiment: Test C postemergence; settings: Sorghum halepense, post-emergence, 336 h, Postemergence, scale 0 to 100, read-out: Plant response rating, Johnsongrass
Outline: as §1

[20] = tested on: pigweed (Amaranthus retroflexus); experiment: Test C preemergence; settings: Amaranthus retroflexus, pre-emergence, 336 h, scale 0 to 100, read-out: Plant response rating, Pigweed
Outline: as §1

[21] = tested on: morningglory (Ipomoea coccinea); experiment: Test C preemergence; settings: Ipomoea, pre-emergence, 336 h, scale 0 to 100, read-out: Plant response rating, Morningglory
Outline: as §1

[22] = tested on: johnsongrass (Sorghum halepense); experiment: Test C preemergence; settings: Sorghum halepense, pre-emergence, 336 h, scale 0 to 100, read-out: Plant response rating, Johnsongrass
Outline: as §1

SMILES: N#Cc1cccc(Oc2ncc(Cl)cn2)c1Oc1ncc(C(F)(F)F)cn1 [Compound 38, 3-[(5-chloro-2-pyrimidinyl)oxy]-2-[[5-(trifluoromethyl)-2-pyrimidinyl]oxy]-benzonitrile]
- pest or weed control at 31 g/ha ([1]; 31 g ai/ha): 0%
- pest or weed control at 62 g/ha ([1]; 62 g ai/ha): 5%
- pest or weed control at 125 g/ha ([1]; 125 g ai/ha): 10%
- pest or weed control at 16 g/ha ([2]; 16 g ai/ha): 5%
- pest or weed control at 31 g/ha ([2]; 31 g ai/ha): 10%
- pest or weed control at 62 g/ha ([2]; 62 g ai/ha): 10%
- pest or weed control at 125 g/ha ([2]; 125 g ai/ha): 30%
- pest or weed control at 16 g/ha ([3]; 16 g ai/ha): 10%
- pest or weed control at 31 g/ha ([3]; 31 g ai/ha): 20%
- pest or weed control at 62 g/ha ([3]; 62 g ai/ha): 20%
- pest or weed control at 125 g/ha ([3]; 125 g ai/ha): 35%
- plant injury at 31 g/ha ([4]; 31 g ai/ha): 0%
- plant injury at 62 g/ha ([4]; 62 g ai/ha): 0%
- plant injury at 125 g/ha ([4]; 125 g ai/ha): 0%
- pest or weed control at 16 g/ha ([5]; 16 g ai/ha): 50%
- pest or weed control at 31 g/ha ([5]; 31 g ai/ha): 50%
- pest or weed control at 62 g/ha ([5]; 62 g ai/ha): 70%
- pest or weed control at 125 g/ha ([5]; 125 g ai/ha): 85%
- pest or weed control at 31 g/ha ([6]; 31 g ai/ha): 75%
- pest or weed control at 62 g/ha ([6]; 62 g ai/ha): 85%
- pest or weed control at 125 g/ha ([6]; 125 g ai/ha): 95%
- Corn plant response rating (crop injury, 0 = no effect, 100 = complete kill) at 16 g/ha ([7]; 16 g ai/ha): 10%
- Corn plant response rating (crop injury, 0 = no effect, 100 = complete kill) at 31 g/ha ([7]; 31 g ai/ha): 20%
- Corn plant response rating (crop injury, 0 = no effect, 100 = complete kill) at 62 g/ha ([7]; 62 g ai/ha): 15%
- Corn plant response rating (crop injury, 0 = no effect, 100 = complete kill) at 125 g/ha ([7]; 125 g ai/ha): 15%
- pest or weed control at 16 g/ha ([8]; 16 g ai/ha): 65%
- pest or weed control at 31 g/ha ([8]; 31 g ai/ha): 70%
- pest or weed control at 62 g/ha ([8]; 62 g ai/ha): 80%
- pest or weed control at 125 g/ha ([8]; 125 g ai/ha): 90%
- pest or weed control at 16 g/ha ([9]; 16 g ai/ha): 70%
- pest or weed control at 31 g/ha ([9]; 31 g ai/ha): 85%
- pest or weed control at 62 g/ha ([9]; 62 g ai/ha): 90%
- pest or weed control at 125 g/ha ([9]; 125 g ai/ha): 90%
- pest or weed control at 31 g/ha ([10]; 31 g ai/ha): 55%
- pest or weed control at 62 g/ha ([10]; 62 g ai/ha): 70%
- pest or weed control at 125 g/ha ([10]; 125 g ai/ha): 50%
- plant injury at 31 g/ha ([11]; 31 g ai/ha): 20%
- plant injury at 62 g/ha ([11]; 62 g ai/ha): 25%
- plant injury at 125 g/ha ([11]; 125 g ai/ha): 5%
- plant injury at 31 g/ha ([12]; 31 g ai/ha): 85%
- plant injury at 62 g/ha ([12]; 62 g ai/ha): 50%
- plant injury at 125 g/ha ([12]; 125 g ai/ha): 80%
- pest or weed control at 31 g/ha ([13]; 31 g ai/ha): 85%
- pest or weed control at 62 g/ha ([13]; 62 g ai/ha): 90%
- pest or weed control at 125 g/ha ([13]; 125 g ai/ha): 90%
- pest or weed control at 16 g/ha ([14]; 16 g ai/ha): 90%
- pest or weed control at 31 g/ha ([14]; 31 g ai/ha): 90%
- pest or weed control at 62 g/ha ([14]; 62 g ai/ha): 90%
- pest or weed control at 125 g/ha ([14]; 125 g ai/ha): 95%
- pest or weed control at 16 g/ha ([15]; 16 g ai/ha): 0%
- pest or weed control at 31 g/ha ([15]; 31 g ai/ha): 0%
- pest or weed control at 62 g/ha ([15]; 62 g ai/ha): 10%
- pest or weed control at 125 g/ha ([15]; 125 g ai/ha): 15%
- pest or weed control at 31 g/ha ([16]; 31 g ai/ha): 65%
- pest or weed control at 62 g/ha ([16]; 62 g ai/ha): 55%
- pest or weed control at 125 g/ha ([16]; 125 g ai/ha): 60%
- pest or weed control at 31 g/ha ([17]; 31 g ai/ha): 85%
- pest or weed control at 62 g/ha ([17]; 62 g ai/ha): 85%
- pest or weed control at 125 g/ha ([17]; 125 g ai/ha): 90%
- pest or weed control at 16 g/ha ([18]; 16 g ai/ha): 5%
- pest or weed control at 31 g/ha ([18]; 31 g ai/ha): 10%
- pest or weed control at 62 g/ha ([18]; 62 g ai/ha): 10%
- pest or weed control at 125 g/ha ([18]; 125 g ai/ha): 25%
- pest or weed control at 16 g/ha ([19]; 16 g ai/ha): 5%
- pest or weed control at 31 g/ha ([19]; 31 g ai/ha): 5%
- pest or weed control at 62 g/ha ([19]; 62 g ai/ha): 5%
- pest or weed control at 125 g/ha ([19]; 125 g ai/ha): 10%
- pest or weed control at 31 g/ha ([20]; 31 g ai/ha, preemergence): 100%
- pest or weed control at 62 g/ha ([20]; 62 g ai/ha, preemergence): 100%
- pest or weed control at 125 g/ha ([20]; 125 g ai/ha, preemergence): 100%
- pest or weed control at 16 g/ha ([20]; Preemergence, 16 g ai/ha): 100%
- pest or weed control at 31 g/ha ([21]; 31 g ai/ha, preemergence): 80%
- pest or weed control at 62 g/ha ([21]; 62 g ai/ha, preemergence): 95%
- pest or weed control at 125 g/ha ([21]; 125 g ai/ha, preemergence): 100%
- pest or weed control at 16 g/ha ([21]; Preemergence, 16 g ai/ha): 40%
- pest or weed control at 31 g/ha ([22]; 31 g ai/ha, preemergence): 85%
- pest or weed control at 62 g/ha ([22]; 62 g ai/ha, preemergence): 85%
- pest or weed control at 125 g/ha ([22]; 125 g ai/ha, preemergence): 100%
- pest or weed control at 16 g/ha ([22]; Preemergence, 16 g ai/ha): 45%
